# Laboratory results from US20120178915A1, “PYRIMIDINE DERIVATIVES AND ANALOGS, PREPARATION METHOD AND USE THEREOF” (priority 2009, published 2012).
# Read-outs that look alike come from different tables or passages of the source.
# What was measured:
# Bacillus cereus 2 = assay: microbe, parasite or virus in culture; assay type: cell-based; settings: 37° C., 24 h, read-out: Minimum Inhibitory Concentration, MIC
# Bacillus cereus 246 = assay: microbe, parasite or virus in culture; assay type: cell-based; settings: 37° C., 24 h, read-out: Minimum Inhibitory Concentration, MIC
# Bacillus subtilis 82 = assay: microbe, parasite or virus in culture; assay type: cell-based; settings: 37° C., 24 h, read-out: Minimum Inhibitory Concentration, MIC
# Bacillus subtilis 168 = assay: microbe, parasite or virus in culture; assay type: cell-based; settings: 37° C., 24 h, read-out: Minimum Inhibitory Concentration, MIC
# [1] = system: Enterococcus faecalis 29212; assay: microbe, parasite or virus in culture; assay type: cell-based; settings: 37° C., 24 h, read-out: Minimum Inhibitory Concentration, MIC
# [2] = system: Enterococcus faecalis 51299; assay: microbe, parasite or virus in culture; assay type: cell-based; settings: Enterococcus faecalis, 51299, 24 h, read-out: Minimum Inhibitory Concentration, MIC
# [3] = system: Enterococcus faecalis 19433; assay: microbe, parasite or virus in culture; assay type: cell-based; settings: 37° C., 24 h, read-out: Minimum Inhibitory Concentration, MIC
# [4] = system: Enterococcus faecalis F2518 (VRE); assay: microbe, parasite or virus in culture; assay type: cell-based; settings: 24 h, read-out: Minimum Inhibitory Concentration, MIC
# [5] = system: Enterococcus fecal F631 (VRE); assay: organism not typed; assay type: cell-based; settings: 24 h, read-out: Minimum Inhibitory Concentration, MIC
# [6] = system: Enterococcus faecalis 1513 (VRE); assay: microbe, parasite or virus in culture; assay type: cell-based; settings: 24 h, read-out: Minimum Inhibitory Concentration, MIC
# [7] = system: Enterococcus faecalis 583 (VRE); assay: microbe, parasite or virus in culture; assay type: cell-based; settings: 24 h, read-out: Minimum Inhibitory Concentration, MIC
# [8] = system: Staphylococcus aureus 29231; assay: microbe, parasite or virus in culture; assay type: cell-based; settings: 37° C., 24 h, read-out: Minimum Inhibitory Concentration, MIC
# [9] = system: Staphylococcus aureus 43300 (MRSA); assay: microbe, parasite or virus in culture; assay type: cell-based; settings: 24 h, read-out: Minimum Inhibitory Concentration, MIC
# [10] = system: Staphylococcus aureus 703 (MRSA); assay: microbe, parasite or virus in culture; assay type: cell-based; settings: 24 h, read-out: Minimum Inhibitory Concentration, MIC
# [11] = system: Staphylococcus aureus 704 (MRSA); assay: microbe, parasite or virus in culture; assay type: cell-based; settings: 24 h, read-out: Minimum Inhibitory Concentration, MIC
# [12] = system: Staphylococcus aureus 705 (MRSA); assay: microbe, parasite or virus in culture; assay type: cell-based; settings: 24 h, read-out: Minimum Inhibitory Concentration, MIC
# [13] = system: Streptococcus pneumoniae 6303 (PRSP); assay: microbe, parasite or virus in culture; assay type: cell-based; settings: 24 h, read-out: Minimum Inhibitory Concentration, MIC
# [14] = system: Streptococcus pneumoniae 62; assay: microbe, parasite or virus in culture; assay type: cell-based; settings: 37° C., 24 h, read-out: Minimum Inhibitory Concentration, MIC
# [15] = system: Streptococcus pneumoniae 6301; assay: microbe, parasite or virus in culture; assay type: cell-based; settings: 37° C., 24 h, read-out: Minimum Inhibitory Concentration, MIC
# [16] = system: Streptococcus pneumoniae M2; assay: microbe, parasite or virus in culture; assay type: cell-based; settings: 37° C., 24 h, read-out: Minimum Inhibitory Concentration, MIC
# Pyogenic Streptococcus = assay: microbe, parasite or virus in culture; assay type: cell-based; settings: 37° C., 24 h, read-out: Minimum Inhibitory Concentration, MIC
# [17] = system: Streptococcus agalactiae B; assay: microbe, parasite or virus in culture; assay type: cell-based; settings: 37° C., 24 h, read-out: Minimum Inhibitory Concentration, MIC
# green Streptococcus 1009 = assay: microbe, parasite or virus in culture; assay type: cell-based; settings: 37° C., 24 h, read-out: Minimum Inhibitory Concentration, MIC
# [18] = system: Streptococcus bovis 10035; assay: microbe, parasite or virus in culture; assay type: cell-based; settings: Streptococcus equinus, 37° C., 24 h, read-out: Minimum Inhibitory Concentration, MIC
# Streptococcus 10342 = assay: MIC broth microdilution; assay type: cell-based; settings: 37° C., 24 h, read-out: Minimum Inhibitory Concentration, MIC
# [19] = system: Streptococcus pneumoniae 10351; assay: microbe, parasite or virus in culture; assay type: cell-based; settings: 37° C., 24 h, read-out: Minimum Inhibitory Concentration, MIC
# Bacillus anthracis 1 = assay: microbe, parasite or virus in culture; assay type: cell-based; settings: Bacillus anthracis, 1, 24 h, read-out: Minimum Inhibitory Concentration, MIC
# [20] = system: Corynebacterium diphtheriae; assay: microbe, parasite or virus in culture; assay type: cell-based; settings: 37° C., 24 h, read-out: Minimum Inhibitory Concentration, MIC
# Clostridium tetani = assay: microbe, parasite or virus in culture; assay type: cell-based; settings: 24 h
# Clostridium perfringens = assay: microbe, parasite or virus in culture; assay type: cell-based; settings: 24 h, read-out: Minimum Inhibitory Concentration, MIC
# Oral candidiasis = assay: MIC broth microdilution; assay type: cell-based; settings: Microorganism 32, Oral candidiasis; 37° C., 24 h; read-out: Minimum Inhibitory Concentration, MIC
# MIC broth microdilution = assay type: cell-based; settings: Microorganism 33, Dermatophytosis; 37° C., 24 h; read-out: Minimum Inhibitory Concentration, MIC
# MRSA 2152 = assay: Antibacterial studies in vivo, survival of mice infected with MRSA 2152; settings: dose mg/kg: ciprofloxacin 20, 3: 30, 7: 40, 21: 50, 33: 25, 70: 70
# [21] = read-out: Minimum Inhibitory Concentration, MIC, Microorganism 29, Clostridium tetani, 37° C.
# [22] = read-out: Minimum Inhibitory Concentration, MIC, Microorganism 30, Clostridium tetani (second line of that name), 37° C.
Structure (SMILES),MIC (Bacillus cereus 2) [µM],MIC (Bacillus cereus 246) [µM],MIC (Bacillus subtilis 82) [µM],MIC (Bacillus subtilis 168) [µM],MIC [1] [µM],MIC [2] [µM],MIC [3] [µM],MIC [4] [µM],MIC [5] [µM],MIC [6] [µM],MIC [7] [µM],MIC [8] [µM],MIC [9] [µM],MIC [10] [µM],MIC [11] [µM],MIC [12] [µM],MIC [13] [µM],MIC [14] [µM],MIC [15] [µM],MIC [16] [µM],also measured
Cc1nn2c(=O)c(C)c(-c3ccc(C#N)cc3)[nH]c2c1-c1ccc(C(F)(F)F)cc1 [Compound 33],1.25,1.25,0.31,1.25,2.5,2.5,5,2.5,0.63,5,2.5,0.63,0.55,0.42,0.28,0.33,1.3,0.63,2.5,1.25,"MIC (Pyogenic Streptococcus): 0.63 µM; MIC [17]: 0.56 µM; MIC (green Streptococcus 1009): 0.3 µM; MIC [18]: 10.5 µM; MIC (Streptococcus 10342): 0.3 µM; MIC [19]: 0.04 µM; MIC (Bacillus anthracis 1): 35.6 µM; MIC [20]: 80.3 µM; MIC (Clostridium tetani; [21]): 60.3 µM; MIC (Clostridium tetani; [22]): 50.6 µM; MIC (Clostridium perfringens): 31.2 µM; MIC (Oral candidiasis): 126 µM; MIC (MIC broth microdilution): 53.6 µM; Survival rate (%) (life prolongation rate) (MRSA 2152; (survival days of test group − blank group)/blank group ×100%, MRSA 2152 mice, tail vein): 169.2%; Survival (MRSA 2152; mice inoculated intraperitoneally with MRSA 2152, test compound by tail vein, repeated after six hours, saline 1.3 days): 3.5 days"
Nc1nc(-c2ccccc2)nc2c1cnn2-c1ccccc1 [Compound 38],124,154,120,212,145,106,108,116,151,150,160,100,210,215,160,210,125,140,141,156,MIC (Pyogenic Streptococcus): 126 µM; MIC [17]: 105 µM; MIC (green Streptococcus 1009): 101 µM; MIC [18]: 121 µM; MIC (Streptococcus 10342): 131 µM; MIC [19]: 136 µM; MIC (Bacillus anthracis 1): 266 µM; MIC [20]: 150 µM; MIC (Clostridium tetani; [21]): 160 µM; MIC (Clostridium tetani; [22]): 120 µM; MIC (Clostridium perfringens): 125 µM; MIC (Oral candidiasis): 150 µM; MIC (MIC broth microdilution): 121 µM
